Reference: ChEMBL document CHEMBL1201862, “PubChem BioAssay data set” (2004)
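The compound was tested at five concentrations on cells cultured in 96-well plates, with a 48-hour exposure period. Here, GI50 denotes the concentration required for 50% inhibition of growth.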 Calls of active or inactive are those of the source. No stated cut-off is given here; in the data, active = GI50 up to about 1.1 µM and inactive = higher.

Key:
Assay in all cases: growth of human tumour cells (NCI), 48 h
ACHN = system: ACHN
UO-31 = system: UO-31
SK-MEL-2 = system: SK-MEL-2
SK-MEL-5 = system: SK-MEL-5
SR = system: SR
TK-10 = system: TK-10
COLO 205 = system: COLO 205
MDA-MB-435 = system: MDA-MB-435
A549 = system: A549
786-0 = system: 786-0
HCC 2998 = system: HCC 2998
OVCAR-3 = system: OVCAR-3
DU-145 = system: DU-145
SF-295 = system: SF-295
NCI-H226 = system: NCI-H226
HCT-15 = system: HCT-15
NCI-H23 = system: NCI-H23
MDA-MB-231 = system: MDA-MB-231

| Structure (SMILES) | GI50 (ACHN) | GI50 (UO-31) | GI50 (SK-MEL-2) | GI50 (SK-MEL-5) | GI50 (SR) | GI50 (TK-10) | GI50 (COLO 205) | GI50 (MDA-MB-435) | GI50 (A549) | GI50 (786-0) | GI50 (HCC 2998) | GI50 (OVCAR-3) | GI50 (DU-145) | GI50 (SF-295) | GI50 (NCI-H226) | GI50 (HCT-15) [µM] | GI50 (NCI-H23) | GI50 (MDA-MB-231) |
| --- | --- | --- | --- | --- | --- | --- | --- | --- | --- | --- | --- | --- | --- | --- | --- | --- | --- | --- |
| COC(=O)C1(C(=O)OC)N=C(C)OC1c1ccccc1O (configuration not stated) | > 100 µM (inactive) | > 100 µM (inactive) | > 100 µM (inactive) | > 100 µM (inactive) | > 100 µM (inactive) | > 100 µM (inactive) | > 100 µM (inactive) | > 100 µM (inactive) | > 100 µM (inactive) | > 100 µM (inactive) | > 100 µM (inactive) | > 100 µM (inactive) | > 100 µM (inactive) | > 100 µM (inactive) | > 100 µM (inactive) | > 100 | > 100 µM (inactive) |  |
| O=C(NNS(=O)(=O)c1ccccc1)c1cccnc1 | > 100 µM (inactive) | > 100 µM (inactive) | > 100 µM (inactive) | > 100 µM (inactive) |  | > 100 µM (inactive) | > 100 µM (inactive) | > 100 µM (inactive) | > 100 µM (inactive) | > 100 µM (inactive) | > 100 µM (inactive) | > 100 µM (inactive) | > 100 µM (inactive) | > 100 µM (inactive) | > 100 µM (inactive) | > 100 | > 100 µM (inactive) | > 100 µM (inactive) |
| COC(=O)/C=C(\C)CC/C=C(\C)CCC1OC1(C)C (configuration not stated) | 13 µM (inactive) | 10.7 µM (inactive) | 10.9 µM (inactive) | 11.4 µM (inactive) | 8.79 µM (inactive) | 12.4 µM (inactive) | 15.5 µM (inactive) |  | 12.9 µM (inactive) | 12.6 µM (inactive) | 9.66 µM (inactive) | 11.7 µM (inactive) |  | 11.3 µM (inactive) | 12.1 µM (inactive) | 11.8 | 13.2 µM (inactive) | 12.1 µM (inactive) |
| CCOc1cc2c(cc1O)CC[C@@H]1[C@@H]2CC[C@]2(C)C(N)CC[C@@H]12 (some centres not stated) | 4.58 µM (inactive) | 3.54 µM (inactive) | 4.32 µM (inactive) | 3.56 µM (inactive) |  | 9.2 µM (inactive) | 4.49 µM (inactive) | 1.63 µM (inactive) | 3.3 µM (inactive) | 3.5 µM (inactive) | 2.22 µM (inactive) | 0.811 µM (active) | 2.36 µM (inactive) | 3.24 µM (inactive) | 2.77 µM (inactive) | 3.4 | 3.48 µM (inactive) | 2.12 µM (inactive) |
| Cn1c(=O)c2c(nc3n2CC(=O)N3CCCCl)n(C)c1=O | > 100 µM (inactive) | > 100 µM (inactive) | > 100 µM (inactive) | > 100 µM (inactive) |  | > 100 µM (inactive) | > 100 µM (inactive) | > 100 µM (inactive) | > 100 µM (inactive) | > 100 µM (inactive) | > 100 µM (inactive) | > 100 µM (inactive) | > 100 µM (inactive) | > 100 µM (inactive) | > 100 µM (inactive) | > 100 | > 100 µM (inactive) | > 100 µM (inactive) |
| CC(C)OP(=O)(CN(C)/C(F)=N\C(F)(F)F)OC(C)C | > 100 µM (inactive) | > 100 µM (inactive) | > 100 µM (inactive) | > 100 µM (inactive) |  | > 100 µM (inactive) | > 100 µM (inactive) | > 100 µM (inactive) | > 100 µM (inactive) | > 100 µM (inactive) | > 100 µM (inactive) | > 100 µM (inactive) | > 100 µM (inactive) | > 100 µM (inactive) | > 100 µM (inactive) | > 100 | > 100 µM (inactive) | > 100 µM (inactive) |
| NC(=O)CCC(CCC(N)=O)(CCC(N)=O)[N+](=O)[O-] | > 100 µM (inactive) | > 100 µM (inactive) | > 100 µM (inactive) | > 100 µM (inactive) |  | > 100 µM (inactive) | > 100 µM (inactive) | > 100 µM (inactive) | > 100 µM (inactive) | > 100 µM (inactive) |  |  | > 100 µM (inactive) | > 100 µM (inactive) | 25.4 µM (inactive) | > 100 | > 100 µM (inactive) | > 100 µM (inactive) |
| O=C1NC(=S)NC(=O)C1C(c1ccccc1[N+](=O)[O-])C1C(=O)NC(=S)NC1=O.c1ccncc1 | > 100 µM (inactive) | > 100 µM (inactive) | > 100 µM (inactive) | > 100 µM (inactive) |  | > 100 µM (inactive) | > 100 µM (inactive) | > 100 µM (inactive) | > 100 µM (inactive) | > 100 µM (inactive) |  | > 100 µM (inactive) | > 100 µM (inactive) | > 100 µM (inactive) | > 100 µM (inactive) | > 100 | > 100 µM (inactive) | > 100 µM (inactive) |
